The values that follow come from article PMC3760249 (mBio, 2013).

For test [1], the target named is T1, AppA (Cereibacter sphaeroides, UniProt Q53119).
T1 sequence (Q53119 1-450): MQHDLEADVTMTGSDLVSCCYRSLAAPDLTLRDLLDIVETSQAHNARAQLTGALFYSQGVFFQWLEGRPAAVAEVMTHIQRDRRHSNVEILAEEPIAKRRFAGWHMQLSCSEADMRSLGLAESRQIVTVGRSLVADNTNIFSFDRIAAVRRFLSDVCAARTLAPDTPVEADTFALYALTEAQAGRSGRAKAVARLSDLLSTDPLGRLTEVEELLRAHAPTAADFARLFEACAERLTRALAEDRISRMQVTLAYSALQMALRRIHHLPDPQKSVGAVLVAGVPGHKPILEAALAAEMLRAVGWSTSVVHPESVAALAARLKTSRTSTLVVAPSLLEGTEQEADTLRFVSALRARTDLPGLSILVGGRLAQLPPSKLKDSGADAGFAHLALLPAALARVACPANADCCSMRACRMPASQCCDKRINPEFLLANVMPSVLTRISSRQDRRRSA
Kind of test: co-purification, flavin absorption spectrum. The test is classed as binding. To be noted: BLUF domain cofactor as purified.

Test [2] has as its target T1, AppA. Kind of test: biochemical.

Structures are written as SMILES.

Regarding `Cc1cc2nc3c(=O)[nH]c(=O)nc-3n(C[C@H](O)[C@H](O)[C@H](O)COP(=O)(O)OP(=O)(O)OC[C@H]3O[C@@H](n4cnc5c(N)ncnc54)[C@H](O)[C@@H]3O)c2cc1C` [flavin adenine dinucleotide], on AppA [1], the “co-purification, flavin absorption spectrum” value is given as “it does contain flavin adenine dinucleotide (FAD) as the BLUF domain cofactor”.

On to `C=CC1=C(C)C2=Cc3c(C=C)c(C)c4[n]3[Fe+][n]3c(c(C)c(CCC(=O)O)c3=CC3=NC(=C4)C(C)=C3CCC(=O)O)=CC1=N2` [heme], for which the Kd on AppA [2] was 1250 ± 440 nM.
